Activity calls are given as the source filed them. No cut-off for these calls is given here.
Assays:
[1] = molecular target: T1, Tyrosine-protein kinase BTK (Homo sapiens, UniProt Q06187); assay: Inhibition of full length recombinant human N-terminal His tagged […] expressed in baculovirus infected Sf9 insect cells using poly (Glu,Tyr)4:1 as substrate pretreated for 60 mins followed by substrate addition after 1 hr by ADP-Glo luminescence assay
[2] = molecular target: T1, Tyrosine-protein kinase BTK; assay: Irreversible inhibition of recombinant full length wild-type 3'-FLAG-tagged BTK (unknown origin) expressed in HEK293T cells assessed as reduction in Y223 phosphorylation measured after 4 hrs by Western blot method; type: cell-based
[3] = molecular target: Tyrosine-protein kinase BTK (Homo sapiens, UniProt Q06187, C481S); assay: Irreversible inhibition of recombinant full length 3'-FLAG-tagged BTK C481S mutant (unknown origin) expressed in HEK293T cells assessed as reduction in Y223 phosphorylation measured after 4 hrs by Western blot method; type: cell-based
SU-DHL-2 = assay: Growth inhibition of human SU-DHL-2 cells; type: functional; details: Homo sapiens, SU-DHL-2
MV4-11 = assay: Growth inhibition of human MV411 cells; type: functional; details: Homo sapiens, MV4-11
U2932 [4] = assay: Growth inhibition of human U2932 cells; type: functional; details: Homo sapiens, U2932
Ramos = assay: Growth inhibition of human Ramos cells; type: functional; details: Homo sapiens, Ramos
OCI-AML-3 = assay: Growth inhibition of human OCI-AML3 cells; type: functional; details: Homo sapiens, OCI-AML-3
Pfeiffer [5] = assay: Growth inhibition of human Pfeiffer cells; type: functional; details: Homo sapiens, Pfeiffer
U-937 = assay: Growth inhibition of human U937 cells; type: functional; details: Homo sapiens, U-937
NB-4 = assay: Growth inhibition of human NB4 cells; type: functional; details: Homo sapiens, NB-4
SKM-1 = assay: Growth inhibition of human SKM1 cells; type: functional; details: Homo sapiens, SKM-1
[6] = Growth inhibition of human M07e cells; type: functional; details: Homo sapiens, M-07e
Pfeiffer [7] = assay: Cell cycle arrest in human Pfeiffer cells assessed as increase in accumulation at G0/G1 phase at 10 uM after 48 hrs by propidium iodide/RNase staining based flow cytometric method; type: functional
U2932 [8] = assay: Cell cycle arrest in human U2932 cells assessed as increase in accumulation at G0/G1 phase at 10 uM after 48 hrs by propidium iodide/RNase staining based flow cytometric method; type: functional
[9] = molecular target: T2, Tyrosine-protein kinase JAK3 (Homo sapiens, UniProt P52333); assay: Inhibition of recombinant human N-terminal GST-tagged JAK3 (781 to end residues) expressed in baculovirus infected Sf9 insect cells using poly (Glu,Tyr)4:1 as substrate pretreated for 60 mins followed by substrate addition after 1 hr by ADP-Glo luminescence assay
T2 sequence (P52333 whole entry): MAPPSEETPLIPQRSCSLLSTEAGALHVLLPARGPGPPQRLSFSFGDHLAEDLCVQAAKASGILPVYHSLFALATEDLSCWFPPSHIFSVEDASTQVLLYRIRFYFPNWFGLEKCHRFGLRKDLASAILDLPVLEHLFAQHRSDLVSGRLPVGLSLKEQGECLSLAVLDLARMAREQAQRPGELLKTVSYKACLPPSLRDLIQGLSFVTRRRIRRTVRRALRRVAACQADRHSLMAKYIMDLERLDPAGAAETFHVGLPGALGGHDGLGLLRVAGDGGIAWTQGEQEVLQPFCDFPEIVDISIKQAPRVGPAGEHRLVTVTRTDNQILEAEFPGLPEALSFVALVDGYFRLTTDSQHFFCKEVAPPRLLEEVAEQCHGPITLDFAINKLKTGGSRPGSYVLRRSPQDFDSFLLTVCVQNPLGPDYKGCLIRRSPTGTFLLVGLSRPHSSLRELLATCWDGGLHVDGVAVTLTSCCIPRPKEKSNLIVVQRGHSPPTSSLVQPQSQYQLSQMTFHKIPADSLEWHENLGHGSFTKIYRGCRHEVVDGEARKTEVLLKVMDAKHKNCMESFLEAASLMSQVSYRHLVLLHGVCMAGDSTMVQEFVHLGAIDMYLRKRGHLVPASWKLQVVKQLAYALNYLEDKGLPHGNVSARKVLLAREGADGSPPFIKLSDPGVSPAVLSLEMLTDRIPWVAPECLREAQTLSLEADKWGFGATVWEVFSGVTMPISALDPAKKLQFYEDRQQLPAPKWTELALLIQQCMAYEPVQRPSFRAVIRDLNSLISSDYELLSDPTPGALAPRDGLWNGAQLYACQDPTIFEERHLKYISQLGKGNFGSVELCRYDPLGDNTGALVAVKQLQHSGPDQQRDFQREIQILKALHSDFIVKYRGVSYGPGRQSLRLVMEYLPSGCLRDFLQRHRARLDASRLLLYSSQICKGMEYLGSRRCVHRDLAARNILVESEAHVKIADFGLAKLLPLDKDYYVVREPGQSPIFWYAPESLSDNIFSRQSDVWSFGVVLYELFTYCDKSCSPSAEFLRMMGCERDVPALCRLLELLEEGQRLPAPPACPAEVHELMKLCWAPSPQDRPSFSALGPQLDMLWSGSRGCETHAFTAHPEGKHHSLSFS

[10] = molecular target: Epidermal growth factor receptor (Homo sapiens, UniProt P00533); assay: Inhibition of recombinant human N-terminal GST-tagged wild-type EGFR (695 to end residues) expressed in baculovirus infected Sf9 insect cells using poly (Glu,Tyr)4:1 as substrate pretreated for 60 mins followed by substrate addition after 1 hr by ADP-Glo luminescence assay
[11] = molecular target: T1, Tyrosine-protein kinase BTK; assay: Reversible inhibition of full length recombinant human N-terminal His tagged […] expressed in baculovirus infected Sf9 insect cells using poly (Glu,Tyr)4:1 as substrate pretreated for 2 to 60 mins followed by substrate addition after 1 hr by ADP-Glo luminescence assay
PBMC = assay: Cytotoxicity against PBMC (unknwon origin); type: cell-based
[12] = AUC (0 to t) in Sprague-Dawley rat at 1 mg/kg, iv by LC-MS/MS method; type: ADME, organism-based; details: in vivo
[13] = AUC (0 to t) in Sprague-Dawley rat at 10 mg/kg, po by LC-MS/MS method; type: ADME, organism-based; details: in vivo
[14] = AUC (0 to infinity) in Sprague-Dawley rat at 1 mg/kg, iv by LC-MS/MS method; type: ADME, organism-based; parameters: dose 1 mg/kg, route intravenous, time infinity; details: in vivo
[15] = AUC (0 to infinity) in Sprague-Dawley rat at 10 mg/kg, po by LC-MS/MS method; type: ADME, organism-based; parameters: dose 10 mg/kg, route oral, time infinity; details: in vivo
[16] = MRT (0 to t) in Sprague-Dawley rat at 1 mg/kg, iv by LC-MS/MS method; type: ADME, organism-based; details: in vivo
[17] = MRT (0 to t) in Sprague-Dawley rat at 10 mg/kg, po by LC-MS/MS method; type: ADME, organism-based; details: in vivo
[18] = Elimination half-life in Sprague-Dawley rat at 1 mg/kg, iv by LC-MS/MS method; type: ADME, organism-based; details: in vivo, read-out: beta t1/2 (converted)
[19] = Elimination half-life in Sprague-Dawley rat at 10 mg/kg, po by LC-MS/MS method; type: ADME, organism-based; details: in vivo, read-out: beta t1/2 (converted)
[20] = Tmax in Sprague-Dawley rat at 1 mg/kg, iv by LC-MS/MS method; type: ADME, organism-based; details: in vivo
[21] = Tmax in Sprague-Dawley rat at 10 mg/kg, po by LC-MS/MS method; type: ADME, organism-based; details: in vivo
[22] = Cmax in Sprague-Dawley rat at 1 mg/kg, iv by LC-MS/MS method; type: ADME, organism-based; parameters: dose 1 mg/kg, route intravenous; details: in vivo
[23] = Cmax in Sprague-Dawley rat at 10 mg/kg, po by LC-MS/MS method; type: ADME, organism-based; parameters: dose 10 mg/kg, route oral; details: in vivo
[24] = Oral bioavailability in Sprague-Dawley rat at 10 mg/kg by LC-MS/MS method; type: ADME, organism-based; details: in vivo
[25] = molecular target: T1, Tyrosine-protein kinase BTK

T1 sequence (Q06187 whole entry): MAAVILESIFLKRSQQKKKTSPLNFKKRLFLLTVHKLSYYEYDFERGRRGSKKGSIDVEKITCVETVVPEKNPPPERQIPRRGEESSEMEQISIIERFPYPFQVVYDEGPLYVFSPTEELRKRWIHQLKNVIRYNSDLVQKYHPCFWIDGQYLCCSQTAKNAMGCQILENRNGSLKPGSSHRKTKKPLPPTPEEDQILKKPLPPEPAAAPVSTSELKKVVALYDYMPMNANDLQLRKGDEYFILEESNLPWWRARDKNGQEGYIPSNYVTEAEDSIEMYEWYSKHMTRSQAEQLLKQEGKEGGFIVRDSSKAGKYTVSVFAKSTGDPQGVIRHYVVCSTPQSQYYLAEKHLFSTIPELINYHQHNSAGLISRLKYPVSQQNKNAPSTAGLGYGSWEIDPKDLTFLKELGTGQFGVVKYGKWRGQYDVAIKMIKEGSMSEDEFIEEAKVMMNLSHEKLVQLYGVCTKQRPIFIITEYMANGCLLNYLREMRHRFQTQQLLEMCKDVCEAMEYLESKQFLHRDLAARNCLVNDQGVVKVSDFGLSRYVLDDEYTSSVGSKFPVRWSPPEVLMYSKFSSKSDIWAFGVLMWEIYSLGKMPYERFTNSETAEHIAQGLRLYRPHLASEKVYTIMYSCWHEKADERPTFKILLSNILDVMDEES
Chain of Epidermal growth factor receptor (P00533 whole entry): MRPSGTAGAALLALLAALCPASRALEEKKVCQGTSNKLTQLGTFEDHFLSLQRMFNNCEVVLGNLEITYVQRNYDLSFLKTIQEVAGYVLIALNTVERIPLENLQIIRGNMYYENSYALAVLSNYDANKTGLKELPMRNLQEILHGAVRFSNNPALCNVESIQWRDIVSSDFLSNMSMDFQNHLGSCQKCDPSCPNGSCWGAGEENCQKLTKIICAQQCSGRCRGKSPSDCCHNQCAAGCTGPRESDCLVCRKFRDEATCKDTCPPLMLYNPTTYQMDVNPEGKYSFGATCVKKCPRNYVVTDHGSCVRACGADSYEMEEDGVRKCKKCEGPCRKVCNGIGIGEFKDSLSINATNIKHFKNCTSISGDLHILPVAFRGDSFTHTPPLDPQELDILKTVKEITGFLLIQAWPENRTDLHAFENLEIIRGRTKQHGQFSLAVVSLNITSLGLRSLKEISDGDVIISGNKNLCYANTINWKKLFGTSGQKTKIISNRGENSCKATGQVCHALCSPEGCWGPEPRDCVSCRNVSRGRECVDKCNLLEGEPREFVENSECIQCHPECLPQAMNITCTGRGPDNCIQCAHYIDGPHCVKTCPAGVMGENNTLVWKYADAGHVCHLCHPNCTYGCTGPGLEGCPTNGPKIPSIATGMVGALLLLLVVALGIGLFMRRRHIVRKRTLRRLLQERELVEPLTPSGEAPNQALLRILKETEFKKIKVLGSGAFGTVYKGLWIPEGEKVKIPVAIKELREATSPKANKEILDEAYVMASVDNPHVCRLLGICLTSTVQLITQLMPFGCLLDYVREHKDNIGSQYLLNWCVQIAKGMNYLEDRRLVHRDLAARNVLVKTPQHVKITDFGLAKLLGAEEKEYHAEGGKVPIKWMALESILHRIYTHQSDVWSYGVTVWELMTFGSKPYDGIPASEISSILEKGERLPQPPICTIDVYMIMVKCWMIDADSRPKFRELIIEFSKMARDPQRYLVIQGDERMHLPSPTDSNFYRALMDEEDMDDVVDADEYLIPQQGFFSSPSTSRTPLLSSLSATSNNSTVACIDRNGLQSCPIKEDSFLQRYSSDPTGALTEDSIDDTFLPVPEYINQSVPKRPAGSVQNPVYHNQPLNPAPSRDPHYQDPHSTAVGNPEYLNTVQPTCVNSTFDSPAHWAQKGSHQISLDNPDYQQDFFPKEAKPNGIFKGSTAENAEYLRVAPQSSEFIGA
Chain of Tyrosine-protein kinase BTK (Homo sapiens, UniProt Q06187, C481S) (Q06187 2-659 C481S limits assumed): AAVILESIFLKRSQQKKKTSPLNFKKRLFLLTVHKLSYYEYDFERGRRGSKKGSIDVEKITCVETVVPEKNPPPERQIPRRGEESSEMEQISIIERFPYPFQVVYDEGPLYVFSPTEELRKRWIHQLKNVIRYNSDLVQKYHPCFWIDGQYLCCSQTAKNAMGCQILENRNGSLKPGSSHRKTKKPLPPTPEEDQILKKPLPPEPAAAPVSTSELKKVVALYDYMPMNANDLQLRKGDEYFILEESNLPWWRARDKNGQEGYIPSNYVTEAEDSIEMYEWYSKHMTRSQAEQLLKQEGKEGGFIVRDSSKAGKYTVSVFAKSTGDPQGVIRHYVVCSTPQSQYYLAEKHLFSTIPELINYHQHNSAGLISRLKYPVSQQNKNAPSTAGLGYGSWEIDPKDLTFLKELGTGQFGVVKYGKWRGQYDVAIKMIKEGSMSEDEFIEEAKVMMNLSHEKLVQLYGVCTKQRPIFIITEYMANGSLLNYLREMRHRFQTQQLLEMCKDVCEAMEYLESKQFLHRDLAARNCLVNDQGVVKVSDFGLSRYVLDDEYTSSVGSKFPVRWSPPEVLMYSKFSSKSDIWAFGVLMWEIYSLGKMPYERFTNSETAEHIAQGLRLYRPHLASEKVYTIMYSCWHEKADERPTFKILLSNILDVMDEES

| IC50 [1] [µM] | GI50 (SU-DHL-2) [µM] | GI50 (MV4-11) [µM] | GI50 (Ramos) [µM] | GI50 (OCI-AML-3) [µM] | GI50 (U-937) [µM] | GI50 (SKM-1) [µM] | IC50 [9] [µM] | IC50 [10] [µM] | Ki [11] [µM] | AUC(0-t) [12] [ng·h/mL] | AUC(0-t) [13] [ng·h/mL] | AUC(0-inf) [14] [ng·h/mL] | AUC(0-inf) [15] [ng·h/mL] | MRT last [16] [min] | SMILES | GI50 (U2932 [4]) [µM] | GI50 (Pfeiffer [5]) [µM] | GI50 (NB-4) [µM] | GI50 [6] [µM] | Activity (PBMC) | further results |
| --- | --- | --- | --- | --- | --- | --- | --- | --- | --- | --- | --- | --- | --- | --- | --- | --- | --- | --- | --- | --- | --- |
| 0.163 | > 10 | 4.8 | 4.6 | 9.5 | > 10 | > 10 |  |  |  |  |  |  |  |  | CCC(=O)Nc1cc(Nc2cc(-c3cccc(NC(=O)c4ccc(C(C)(C)C)cc4)c3C)cn(C)c2=O)ccc1C(=O)N1CCOCC1 | > 10 | > 10 | > 10 | > 10 |  | EC50 [2]: > 0.1 µM; EC50 [3]: > 0.1 µM; Activity (Pfeiffer [7]): inactive; Activity (U2932 [8]): inactive |
| 0.0058 | 2.6 | 1.9 | 2.1 | 2.6 | 2.6 | 1 | 2.01 | 5.88 | 0.113 | 317 | 151 | 317 | 291 | 9.6 | C=CC(=O)Nc1cc(Nc2cc(-c3cccc(NC(=O)c4ccc(N(C)C)cc4)c3C)cn(C)c2=O)ccc1C(=O)N1CCOCC1 | 6.9 | 9 | 1.9 | 3.2 | Non-Toxic | MRT last [17]: 203 min; half-life [18]: 14.4 min; half-life [19]: 472 min; Tmax [20]: 1.02 min; Tmax [21]: 4.98 min; Cmax [22]: 2440 ng/mL; Cmax [23]: 144 ng/mL; bioavailability [24]: 4.76%; Kinact [25]: 0.33 min⁻¹ |
| 0.0165 | 1.8 | 2.2 | 1.2 | 2.3 | 1.6 | 2.8 | 1.03 | 6.86 | 0.006 | 1560 | 1790 | 1560 | 1900 | 26.5 | C=CC(=O)Nc1cc(Nc2cc(-c3cccc(NC(=O)c4cc5c(s4)CCCC5)c3C)cn(C)c2=O)ccc1C(=O)N1CCOCC1 | 2.3 | 3.5 | 2.4 | 2.8 | Non-Toxic | MRT last [17]: 141 min; half-life [18]: 36.5 min; half-life [19]: 232 min; Tmax [20]: 1.02 min; Tmax [21]: 90 min; Cmax [22]: 7620 ng/mL; Cmax [23]: 1120 ng/mL; bioavailability [24]: 11.5%; Kinact [25]: 0.05 min⁻¹ |

From ChEMBL document CHEMBL4024706 (Eur J Med Chem, 2017)
